Holding throughout (test): MIC determination at Uppsala University
Assay type in all cases: cell-based

One experiment deals with A. baumanii 195N (a). Conditions: Acinetobacter baumannii, AAC(3)Ia, ANT(3″)Ia, APH(3″)Ib, APH(3′)VI, APH(6)Id. The text has this: (§1) 3.4.1 MIC Determination at Uppsala University (Sweden)
(§2) Tested reference compounds. Amikacin disulfate (Cat. No. A1774, Sigma Aldrich), Apramycin sulfate (Cat. No. A2024, Sigma Aldrich) and Gentamicin sulfate (Cat. No. G1914, Sigma Aldrich).
(§3) Bacterial strains/isolates. All assayed laboratory and clinical strains (P. aeruginosa PA01, A. baumanii ATCC 19606, A. baumanii 195N(a), A. baumanii 48F, E. coli C1162, E. coli C1181, M. morgannii S49 and P. stuartii B8-1) were from the IMI ND4BB ENABLE consortium strain collection. ATCC laboratory strains were acquired directly from the American Type Culture Collection. Clinical strains used were previously published (M Juhas, et al. J. Antimicrob. Chemother., 74 (4), 944-952 (2019); D. Hughes et al., Antimicrob. Agents Chemother., 47 (10), 3222-3232 (2003)) and were resistance genotyped within the ENABLE consortium.
(§4) Culture media and equipment. Water (Thermo Scientific, R05819); Mueller-Hinton II broth (BD Ref. 212322); sterile round-bottom 96-well plates (Thermo Scientific, 262162); Sensititre Nephelometer (ThermoFisher Scientific, V3011); 0.5 McFarland Standard (ThermoFisher Scientific, E1041); sterile polyester film (VWR, 391-1251).
(§5) Compound preparation. MIC assay procedure follows the CLSI M07 standard method (Clinical and Laboratory Standards Institute (CLSI); Methods for dilution antimicrobial susceptibility tests for bacteria that grow aerobically; approved standard—eleventh edition, M07-A10, Vol. 38, No. 2, 2018). Test compounds were received as solids and were dissolved in water to a concentration of 10 mg/mL of active compound. […] This solution was serially diluted in 2-fold steps in the first 10 columns of sterile round-bottom 96-well plates, while the final two columns were filled with Mueller-Hinton II broth without added compound for use as positive and negative growth controls.
(§6) Inoculum preparation. Inoculums were prepared by suspending several colonies freshly streaked culture of test strains in 5 mL of sterile 0.9% NaCl. The cell density of the inoculum solution was assessed and adjusted using a Sensititre Nephelometer and a 0.5 McFarland Standard. The inoculum was diluted 1:100 in Mueller-Hinton II broth and 50 μL of this inoculum solution was added to 50 μL of the test compound solutions yielding a concentration range of 64-0.125 μg/mL. The plates were sealed with sterile polyester film and stationarily incubated at 37° C. for 18 hours.
(§7) MIC determination. The MIC value was determined by visual inspection of bacterial growth within 96-well plates. The lowest concentration completely inhibiting growth was reported as the MIC for each strain and compound combination.

Another experiment has as its system A. baumanii 48F. The conditions noted are these: Acinetobacter baumannii; A. boumanii 48F; ANT(2″)Ia, APH(3″)-Ib, APH(3′)-VIa, APH(6)-Id.
Description: as §1, §2, §3, §4, §5, §6, §7

The test system of another experiment is A. baumanii ATCC 19606. The conditions noted are these: Acinetobacter baumannii, ATCC19606, AMEs: WT.
Description: as §1, §2, §3, §4, §5, §6, §7

The test system of another experiment is E. coli C1162. Conditions: Escherichia coli, APH(3′)-Ia.
Description: as §1, §2, §3, §4, §5, §6, §7

In another experiment the test system is E. coli C1181. The conditions noted are these: Escherichia coli, ANT(3″)-Ia, APH(3′)-Ia.
Description: as §1, §2, §3, §4, §5, §6, §7

A further experiment has as its system M. morgannii S49. The conditions noted are these: Morganella morganii, AAC(3)-IId, ANT(3″), APH(3″)-Ib, APH(3′)-Ia, APH(6)-Id.
Description: as §1, §2, §3, §4, §5, §6, §7

Another experiment concerns P. aeruginosa PAO1. The conditions noted are these: Pseudomonas aeruginosa, AMEs: WT.
Description: as §1, §2, §3, §4, §5, §6, §7

For the next experiment, the system named is P. stuartii B8-1. The conditions noted are these: Providencia stuartii, B81, AAC(3)-Ic, ANT (3″)Ia, APH(3′)-IIa, APH(3′)-IIb, APH(3′)-VI, APH(6)-Ic.
Description: as §1, §2, §3, §4, §5, §6, §7

Each structure is given as a SMILES string.

As to `CN[C@@H]1[C@@H](O[C@H]2O[C@H](CO)[C@@H](N)[C@H](O)[C@H]2O)OC2C[C@@H](N)[C@@H](O[C@H]3[C@H](O)[C@@H](O)[C@H](N)C[C@@H]3N)OC2[C@@H]1O` (some centres unmarked) [Apramycin, apramycin, reference compound], the MIC90 with A. baumanii 195N (a) is 32 µg/mL; in the experiment on A. baumanii 48F, 32 µg/mL; in the experiment on A. baumanii ATCC 19606, 32 µg/mL; with E. coli C1162 it was 8 µg/mL; in the experiment with E. coli C1181, 8 µg/mL; in the experiment on M. morgannii S49 it was 8 µg/mL. Besides, the MIC90 in the experiment with P. aeruginosa PAO1 and in the experiment with P. stuartii B8-1 was 8 µg/mL in each case.

These data come from patent publication US20220127297A1, “Novel Antibacterial 3"-Derivatives Of 4,6-Disubstituted 2,5-Dideoxystreptamine Aminoglycoside Antibiotics” (AGILeBiotics B.V., priority 2018, published 2022).
